Assay results reported in patent US10189809B2, “SGC stimulators” (Ironwood Pharmaceuticals, Inc., priority 2010, dated 2019).
Where two headings read alike, the source gives them in different places.

What was measured:
[1] = molecular target: Human soluble guanylate cyclase enzyme (hsGC) (Homo sapiens (Human), UniProt Q02108+Q02153); assay: Purified human sGC enzyme activity assay; type: biochemical; conditions: for sGC Enzyme (specific activity at 10 μM) / sGC Enzyme (fold increase at 10 μM without SNP) / sGC Enzyme (fold increase at 10 μM): 10 μM compound; for sGC Enzyme (specific activity at 30 μM) / sGC Enzyme (fold increase at 30 μM without SNP) / sGC Enzyme (fold increase at 30 μM): 30 μM compound; for sGC Enzyme (fold increase at 10 μM) / sGC Enzyme (fold increase at 30 μM): without the addition of SNP
Chain of Human soluble guanylate cyclase enzyme (hsGC) (Q02153 whole entry): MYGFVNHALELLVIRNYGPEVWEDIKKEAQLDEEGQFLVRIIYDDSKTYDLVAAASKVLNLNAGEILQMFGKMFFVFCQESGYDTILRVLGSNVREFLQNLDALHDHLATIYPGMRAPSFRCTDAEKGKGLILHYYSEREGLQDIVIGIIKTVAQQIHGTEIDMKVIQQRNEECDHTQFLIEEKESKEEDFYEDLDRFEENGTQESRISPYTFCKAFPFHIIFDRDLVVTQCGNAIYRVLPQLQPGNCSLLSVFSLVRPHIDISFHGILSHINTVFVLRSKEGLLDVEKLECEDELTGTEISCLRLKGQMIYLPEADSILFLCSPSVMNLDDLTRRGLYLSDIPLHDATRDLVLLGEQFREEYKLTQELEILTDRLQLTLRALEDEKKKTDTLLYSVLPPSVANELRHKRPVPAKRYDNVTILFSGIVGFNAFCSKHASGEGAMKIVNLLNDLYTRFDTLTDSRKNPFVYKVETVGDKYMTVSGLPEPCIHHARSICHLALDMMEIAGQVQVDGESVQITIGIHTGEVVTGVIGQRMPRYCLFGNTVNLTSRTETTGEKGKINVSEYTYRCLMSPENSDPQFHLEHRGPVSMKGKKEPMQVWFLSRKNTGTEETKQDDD
Chain of Human soluble guanylate cyclase enzyme (hsGC) (Q02108 whole entry): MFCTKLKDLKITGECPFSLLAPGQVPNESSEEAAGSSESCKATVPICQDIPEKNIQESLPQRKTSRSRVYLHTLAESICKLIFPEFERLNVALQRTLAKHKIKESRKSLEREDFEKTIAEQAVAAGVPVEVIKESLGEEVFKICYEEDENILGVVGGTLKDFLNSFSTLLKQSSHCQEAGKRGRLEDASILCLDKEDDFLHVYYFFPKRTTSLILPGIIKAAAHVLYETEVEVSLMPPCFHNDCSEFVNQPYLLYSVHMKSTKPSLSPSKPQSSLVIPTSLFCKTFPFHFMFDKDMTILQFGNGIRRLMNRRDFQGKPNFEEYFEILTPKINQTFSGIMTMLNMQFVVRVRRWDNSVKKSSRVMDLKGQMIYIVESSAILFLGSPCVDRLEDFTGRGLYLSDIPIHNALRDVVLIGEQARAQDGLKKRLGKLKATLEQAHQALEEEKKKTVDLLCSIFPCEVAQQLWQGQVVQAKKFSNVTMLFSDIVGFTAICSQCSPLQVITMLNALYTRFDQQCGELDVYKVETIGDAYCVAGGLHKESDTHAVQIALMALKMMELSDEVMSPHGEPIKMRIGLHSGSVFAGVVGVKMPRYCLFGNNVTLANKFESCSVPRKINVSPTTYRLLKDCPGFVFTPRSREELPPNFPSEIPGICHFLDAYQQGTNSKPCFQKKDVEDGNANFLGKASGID
Description: Human soluble guanylate cyclase enzyme (hsGC) obtained from Enzo Inc. (P/N: ALX-201-177) was used to evaluate the activity of test compounds. The assay reactions contained 0.1 M Tris (pH 8.0), 0.5 mg/mL BSA (pH 8.0), 2 mM DTT, 2 mM MgCl2, 300 μM GTP, 1 mM 3-isobutyl-1-methylxanthine (IBMX) and 5 ng human soluble guanylate cyclase enzyme. Test compounds in DMSO were then added (2 μL, 10 or 30 μM final concentration) and incubated (200 μL, 96-well plate format) at 37° C. for 30 minutes. The controls were carried out using 2 μL DMSO. After the 30 minute incubation, the reaction was stopped with the addition of 200 μL of cold methanol. The plate was then centrifuged at 3,200 rpm for 10 minutes at room temperature. Supernatants (200 μL) were collected and transferred to a new 96 well plate for analysis.
An 8 point cGMP (Sigma-Aldrich P/N: G6129) standard curve was prepared in assay buffer ranging from 0.156-20 μM. Samples for the cGMP standard curve were then diluted with an equal volume of methanol resulting in final cGMP concentrations of 0.078-10 μM.
The cGMP standard curve was generated using GraphPad Prism Software.
Calculations: Specific Activity was determined by the amount of cGMP formed (nmoles) per mg of sGC per min. Enzyme “fold-change” was calculated by dividing Specific Activity for test compounds by Specific Activity of DMSO controls.

[2] = molecular target: soluble guanylate cyclase (sGC) (Homo sapiens (Human), UniProt Q02108+Q02153); assay: sGC-HEK-cGMP assay run with SNP incubation (HEK WC assay); type: cell-based
Chain of soluble guanylate cyclase (sGC) (Q02153 whole entry): as the sequence (Q02153 whole entry) above
Chain of soluble guanylate cyclase (sGC) (Q02108 whole entry): as the sequence (Q02108 whole entry) above
Description: Human embryonic kidney cells (HEK293), endogenously expressing soluble guanylate cyclase (sGC), were used to evaluate the activity of test compounds. Compounds stimulating the sGC receptor should cause an increase in the intracellular concentration of cGMP. HEK 293 cells were seeded in Dulbecco's Modification of Eagle's Medium supplemented with fetal bovine serum (10% final) and L-glutamine (2 mM final) in a 200 μL volume at a density of 1×10^5 cells/well in a poly-D-lysine coated 96 well flat bottom plate and grown overnight at 37° C. Medium was aspirated and cells were washed with 1× Hank's Buffered Saline Salt Solution (200 μL). Cells were then incubated for 15 minutes at 37° C. with 0.5 mM 3-isobutyl-1-methylxanthine (200 μL). Test article and sodium nitroprusside were then added to the assay mixture (2 μL each) and incubated at 37° C. for 10 minutes. After the 10 minute incubation, the assay mixture was aspirated and 0.1M HCl (200 μL) was added to the cells. The plate was incubated at 4° C. for 30 minutes in the 0.1M HCl to stop the reaction and lysed the cells. The plates were then centrifuged at 1,200 g for 5 minutes at room temperature. Supernatants were collected and transferred to a new flat bottom 96 well plate for analysis. Vehicle controls were carried out using DMSO (1%). […] Samples were diluted with an equal volume of 1 M Ammonium Acetate (pH 7) to neutralize samples for better chromatography. […] EC50 values were calculated from concentration-response curves generated with GraphPad Prism Software.

[3] = read-out: HEK WC Assay (% Emax at 10 uM/with 10 uM SNP)
[4] = read-out: HEK WC Assay (% Emax at 30 uM/with 10 uM SNP)

| sGC Enzyme (specific activity at 10 μM) [1] | sGC Enzyme (fold increase at 10 μM without SNP) [1] | sGC Enzyme (specific activity at 30 μM) [1] | sGC Enzyme (fold increase at 30 μM without SNP) [1] | Emax at 10 µM [2, 3] | Emax at 30 µM [2, 4] | sGC Enzyme (fold increase at 10 μM) [1] | sGC Enzyme (fold increase at 30 μM) [1] | Emax at 10 µM ([2]; read-out: HEK WC Assay (% Emax at 10 μM/with 10 uM SNP)) | Emax at 30 µM ([2]; read-out: HEK WC Assay (% Emax at 30 μM/with 10 uM SNP)) | Structure (SMILES) |
| --- | --- | --- | --- | --- | --- | --- | --- | --- | --- | --- |
| C (C = 100 to <200) | A (A = no increase to <2 fold increase) | D (D = 200 to <500) | B (B = 2 to <5 fold increase) | 0 to 10% | 0 to 10% | – | – | – | – | Cc1cc(-c2cc(-c3ccccn3)nn2Cc2ccccc2F)c(C)s1 [Compound I-8] |
| C (C = 100 to <200) | A (A = no increase to <2 fold increase) | C (C = 100 to <200) | B (B = 2 to <5 fold increase) | 0 to 10% | 0 to 10% | – | – | – | – | Fc1cccc(-c2cc(-c3ccccn3)nn2Cc2ccccc2F)c1 [Compound I-9] |
| C (C = 100 to <200) | A (A = no increase to <2 fold increase) | C (C = 100 to <200) | A (A = no increase to <2 fold increase) | 0 to 10% | 0 to 10% | – | – | – | – | Fc1ccc(-c2cc(-c3ccccn3)nn2Cc2ccccc2F)cc1 [Compound I-12] |
| C (C = 100 to <200) | A (A = no increase to <2 fold increase) | C (C = 100 to <200) | A (A = no increase to <2 fold increase) | 0 to 10% | 0 to 10% | – | – | – | – | Cc1cc(-c2cc(-c3ncccn3)nn2Cc2ccccc2F)c(C)s1 [Compound I-14] |
| B (B = 50 to <100) | A (A = no increase to <2 fold increase) | B (B = 50 to <100) | A (A = no increase to <2 fold increase) | 0 to 10% | 0 to 10% | – | – | – | – | CS(=O)(=O)c1ccc(-c2cc(-c3ccccn3)n(Cc3ccccc3F)n2)nc1 [Compound I-50, 2-(1-(2-fluorobenzyl)-5-(pyridin-2-yl)-1H-pyrazol-3-yl)-5-(methylsulfonyl)pyridine] |
| – | A (A = no increase to <2 fold increase) | – | A (A = no increase to <2 fold increase) | 0 to 10% | 0 to 10% | – | – | – | – | Fc1ccccc1Cn1nc(-c2ncccn2)cc1-c1cc2ccccc2o1 [Compound I-68] |
| – | – | – | – | – | – | A (A = no increase to <2 fold increase) | A (A = no increase to <2 fold increase) | – | – | COc1ccc(-c2cc(-c3ncccn3)nn2Cc2ccccc2F)cn1 [Compound I-77, 2-(1-(2-fluorobenzyl)-5-(6-methoxypyridin-3-yl)-1H-pyrazol-3-yl)pyrimidine] |
| – | – | – | – | – | – | A (A = no increase to <2 fold increase) | A (A = no increase to <2 fold increase) | – | – | COc1cccc(-c2cc(-c3ccccn3)n(Cc3ccccc3F)n2)n1 [Compound I-78] |
| – | – | – | – | – | – | A (A = no increase to <2 fold increase) | A (A = no increase to <2 fold increase) | 0 to 10% | 0 to 10% | Fc1ccccc1Cn1nc(-c2ccccn2)cc1-c1ncccn1 [Compound I-80] |
